From patent US8431615B2, “Dose forms” (priority 2004, dated 2013)

Key:
[1] = Predicted human liver exposures versus replicon assay IC50/IC90; conditions: dose range studied
Text: Liver exposures to VX-950 were predicted based on the integrated preclinical and clinical data.

HCV genotype 1 = assay: Multiple-dose 14-day study, plasma HCV RNA (Roche COBAS TaqMan HCV/HPS assay); type: in vivo, human
Text: Detection of HCV RNA was done using the Roche COBAS TaqMan HCV/HPS assay, available from Roche molecular Diagnostics. Other assays are available.

[2] = system: AST (aspartate aminotransferase); assay: Multiple-dose 14-day study, AST; type: in vivo, human; conditions: upon administration of VX-950
HCV NS3/4A protease = HCV NS3/4A protease (Hepatitis C virus genotype 1a, UniProt P27958); assay: In vitro cleavage of TRIF by HCV NS3/4A protease; type: biochemical; conditions: 10 μM VX-950, tNS3 protease 0-4 μM
Sequence of HCV NS3/4A protease (P27958 1027-1208, other chains not shown): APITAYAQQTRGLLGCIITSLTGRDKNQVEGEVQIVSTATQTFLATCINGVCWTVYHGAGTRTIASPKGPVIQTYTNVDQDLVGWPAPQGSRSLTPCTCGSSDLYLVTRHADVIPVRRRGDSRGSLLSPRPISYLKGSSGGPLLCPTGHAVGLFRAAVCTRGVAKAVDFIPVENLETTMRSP
Description: The 35S methionine labeled coupled in vitro transcription/translation product of TRIF protein (as a substrate) was incubated with increasing concentration of tNS3 protease enzyme ranging from 0-4 μM either in the presence (Circles) or absence (Squares) of 10 μM VX-950, followed by SDS-PAGE and exposure to phosphorimager.

[3] = in vivo
WT-HCV protease-SEAP = conditions: SCID mice expressing WT-HCV protease-SEAP; cited from earlier work
[4] = system: ALT (alanine aminotransferase); assay: Multiple-dose 14-day study, serum ALT; conditions: 450 mg q8h, day 12; 5 out of 10 samples missing
neopterin = assay: Multiple-dose 14-day study, serum neopterin (competitive ELISA); conditions: 750 mg q8h, day 14; baseline 10.48±0.84 nmol/l; ULN 7.7 nmol/l
IFN-β promoter activity = assay: IFN-β promoter luciferase activity in Sendai virus stimulated Huh7 cells expressing HCV protease; conditions: 10 μM VX-950, Sendai virus infected Huh7 cells, WT HCV protease

CCC[C@H](NC(=O)[C@@H]1[C@H]2CCC[C@H]2CN1C(=O)[C@@H](NC(=O)[C@@H](NC(=O)c1cnccn1)C1CCCCC1)C(C)(C)C)C(=O)C(=O)NC1CC1 [VX-950]
predicted average liver concentration as multiple of the replicon assay IC50 [1]: up to 113 fold
predicted average liver concentration as multiple of the replicon assay IC90 [1]: up to 57 fold
Maximum change from baseline in HCV RNA (log10 IU/mL), subjects in category (HCV genotype 1; category >−1 to <0, 450 mg q8 h (n = 10)): 0 n
Maximum change from baseline in HCV RNA (log10 IU/mL), subjects in category (HCV genotype 1; category >−1 to <0, 750 mg q8 h (n = 8)): 0 n
Maximum change from baseline in HCV RNA (log10 IU/mL), subjects in category (HCV genotype 1; category >−1 to <0, 1250 mg q12 h (n = 10)): 0 n
Maximum change from baseline in HCV RNA (log10 IU/mL), subjects in category (HCV genotype 1; category >−2 to ≦−1, 450 mg q8 h (n = 10)): 0 n
Maximum change from baseline in HCV RNA (log10 IU/mL), subjects in category (HCV genotype 1; category >−2 to ≦−1, 750 mg q8 h (n = 8)): 0 n
Maximum change from baseline in HCV RNA (log10 IU/mL), subjects in category (HCV genotype 1; category >−2 to ≦−1, 1250 mg q12 h (n = 10)): 0 n
Maximum change from baseline in HCV RNA (log10 IU/mL), subjects in category (HCV genotype 1; category >−3 to ≦−2, 450 mg q8 h (n = 10)): 1 n
Maximum change from baseline in HCV RNA (log10 IU/mL), subjects in category (HCV genotype 1; category >−3 to ≦−2, 750 mg q8 h (n = 8)): 0 n
Maximum change from baseline in HCV RNA (log10 IU/mL), subjects in category (HCV genotype 1; category >−3 to ≦−2, 1250 mg q12 h (n = 10)): 1 n
Maximum change from baseline in HCV RNA (log10 IU/mL), subjects in category (HCV genotype 1; category >−4 to ≦−3, 450 mg q8 h (n = 10)): 7 n
Maximum change from baseline in HCV RNA (log10 IU/mL), subjects in category (HCV genotype 1; category >−4 to ≦−3, 750 mg q8 h (n = 8)): 3 n
Maximum change from baseline in HCV RNA (log10 IU/mL), subjects in category (HCV genotype 1; category >−4 to ≦−3, 1250 mg q12 h (n = 10)): 9 n
Maximum change from baseline in HCV RNA (log10 IU/mL), subjects in category (HCV genotype 1; category >−5 to ≦−4, 450 mg q8 h (n = 10)): 0 n
Maximum change from baseline in HCV RNA (log10 IU/mL), subjects in category (HCV genotype 1; category >−5 to ≦−4, 750 mg q8 h (n = 8)): 3 n
Maximum change from baseline in HCV RNA (log10 IU/mL), subjects in category (HCV genotype 1; category >−5 to ≦−4, 1250 mg q12 h (n = 10)): 0 n
Maximum change from baseline in HCV RNA (log10 IU/mL), subjects in category (HCV genotype 1; category ≧−5, 450 mg q8 h (n = 10)): 2 n
Maximum change from baseline in HCV RNA (log10 IU/mL), subjects in category (HCV genotype 1; category ≧−5, 750 mg q8 h (n = 8)): 2 n
Maximum change from baseline in HCV RNA (log10 IU/mL), subjects in category (HCV genotype 1; category ≧−5, 1250 mg q12 h (n = 10)): 0 n
drop in viral load, every patient (HCV genotype 1; during administration, all dose groups): > 2 log10
subjects with a 3 log10 reduction in HCV-RNA (HCV genotype 1; within the first three days, of the 28 subjects receiving VX-950): 26
effect on AST levels [2]: decreased
effect on in vitro cleavage of TRIF (HCV NS3/4A protease): inhibits in vitro cleavage of TRIF
severe (grade 3 or grade 4) adverse events [3]: No adverse events were considered to be severe
effect on elevated ALT levels in animal model (WT-HCV protease-SEAP): ameliorates elevated ALT levels
ALT level, median [4]: 38 U/l
ALT level, range [4]: 25-125 U/l
mean neopterin (neopterin): 7.32 ± 0.48 nmol/L
effect on IFNβ dependent gene expression (IFN-β promoter activity): restores IFNβ dependent gene expression
